Patent US6515122B1, “Tetracyclic benzimidazole derivatives and combinatorial libraries thereof” (Lion Bioscience AG, priority 1999, dated 2003)

System: Streptococcus pyogenes (ATCC# 97-03 14289)
Assay: Anti-microbial screen (growth inhibition, OD 570 nm)
Format: cell-based
Details: ATCC97, compounds at 170 μg/ml, Todd Hewitt Broth, read at 4 hrs
Experimental: Streptococcus pyogenes (ATCC# 97-03 14289) were grown in Todd Hewitt Broth (THB) (Difco Laboratories #0492-17-6) overnight until they reached an optical density of (OD=0.636@ 570 nm) by reading 0.1 ml in a 96 well microtiter plate in a Molecular Devices Thermomax. This preparation was kept frozen as stocks in 30% v/v glycerol in 1.5 ml aliquots at −70 C° until used. Prior to screening, 1.5 ml aliquots were thawed and diluted into 50 ml THB. 200 μl of this dilution was added to 92 wells of microtiter plate. To three wells THB (200 μl) was added to serve as a blank and a sterility control. Test compounds in DMSO and appropriate concentrations of DMSO were added to Growth/Solvent Controls at 0 time. Plates were read at 0 time at 570 nm in the Molecular Devices plate reader to obtain compounds correction factors for insoluble or colored compounds. Plates were read again at 4 hrs.
Compounds were assayed at a concentration of 170 μg/ml. Percent inhibition for each compound was calculated using the following formulae:
Color correct=(O.D. 0 hr−Blank 0 hr)−(Solvent Control 0 hr−Blank 0 hr)
% Inhibition=100−(O.D. test compound 4 hr−Blank 4 hr−color correct) divided by (O.D. growth/solvent control 4 hr−Blank 4 hr)

Row | Structure (SMILES) | inhibition at 170 µg/mL
1 | Cn1cnnc1Sc1ccc2c(c1)-c1nc3ccccc3n1C(CCCNC(=N)N)C(=O)N2 (stereo not drawn) [6000#60857] | 95.3%
2 | N=C(N)NCCCC1C(=O)Nc2ccc(N3CCSCC3)cc2-c2nc3ccccc3n21 (stereo not drawn) [6000#60875] | 101%
3 | CCN(CC)c1ccc2c(c1)-c1nc3ccccc3n1C(CCCNC(=N)N)C(=O)N2 (stereo not drawn) [6000#60879] | 97.4%
